Source: paper PMC8230565, “Bisavenathramide Analogues as Nrf2 Inductors and Neuroprotectors in In Vitro Models of Oxidative Stress and Hyperphosphorylation” (Antioxidants, 2021)
“Also recorded” adds a separate entry of the source.

Columns and labels:
[1] = system: neuroblastoma SHSY5Y cells; experiment: Cytotoxicity in SHSY5Y cells (MTT reduction); assay type: cell-based; details: for LD50: MTT reduction
Experimental: SH-SY5Y cells (ECACC 94030304, Porton Down, Salisbury, UK), from passages between 4 and 16 after defreezing, were maintained in a MEM/F12 containing […] nonessential amino acids and supplemented with 10% fetal bovine serum (FBS), glutamine 1 mM, 50 units/mL of penicillin, and 50 μg/mL of streptomycin (GIBCO, Madrid, Spain). Cells were harvested in a […] flask and incubated at 37 °C with wet atmosphere and 5% CO2, carrying out passages 1:4 twice a week. For neuroprotection experiments, cells were seeded in 96-well plates at a density of 60,000 cells/well. For the toxicity experiments, cells were treated with the compounds under assay before reaching confluence, in MEM/F12 with 1% FBS.
Due to their presumed electrophilicity, the neurotoxicity of our compounds was investigated by investigating their influence on cell viability in the neuroblastoma SHSY5Y cell line prior to other studies in cell cultures. […] It is relevant to note that, despite their reputation for toxicity, interest in covalent drugs has undergone a renaissance, and about 30% of the recently marketed drugs belong to this class.

[2] = DPPH radical scavenging assay; details: for DPPH Scavenging at 0.1 mM, %: 0.1 mM compound; for IC50: n in brackets; for DPPH Scavenging at 1 mM, %: 1 mM compound
Experimental: The direct antioxidant effects of compounds 3 were investigated by studying their radical-scavenging effect on the 2,2-diphenyl-1-picrylhydrazyl free radical (DPPH^•). Thus, a 100 μL volume of a methanol solution of each compound was added to 200 μL of 100 μM methanolic DPPH^•, and the solution was kept in the dark at 37 °C for 30 min in a 96-well microliter plate. After this incubation, the absorption at 490 nm of each solution was measured with a microplate reader in order to quantitate its decrease. A blank reading was also taken to calculate the amount of remaining DPPH^•. The radical-scavenging activity exerted by compounds 3 was determined by comparison with a 10 μL of MeOH-treated blank group. Ascorbic acid, a well-known antioxidant acting as a radical scavenger, was used as reference. All samples were analyzed in triplicate. Percent inhibition of the DPPH^• radical was calculated using the equation shown below, where AbsCtrl is the absorbance of the blank group and Abss is the absorbance of the samples containing compounds 3. For each compound showing a percentage of inhibition above 60%, the IC50 value was determined using a dose–response curve obtained from measurements corresponding to at least six concentrations. %Scavenger=AbsCtrl−AbsS/AbsCtrl×100
The radical scavenging activity of all compounds was first studied by the DPPH assay, which measures the ability of antioxidant compounds to donate a hydrogen atom to the violet 2,2-diphenyl-1-picrylhydrazyl radical and transform it into a nonradical species. Thus, it is generally considered to belong to the hydrogen atom transfer (HAT) category of methods for measurement of antioxidant activity.

[3] = biological target: AChE (Electrophorus electricus) (Electrophorus electricus, UniProt O42275); experiment: Acetylcholinesterase inhibition (Ellman's method); assay type: biochemical; details: for inhibition at 10 µM: 10 μM compound, read-out: % Inhibition of EeAChE at 10 μM; for IC50: n in brackets, read-out: IC50 (EeAChE)
Experimental: Ellman’s method was employed to determine the inhibitory capacity of the compounds against AChE (Electrophorus electricus). The compounds were studied at 10 μM concentration, at room temperature, using PBS (0.1 M, pH 8) as solvent. Transparent 48-well microplates (COSTAR 3548) were used and, in each one, a blank was included. The compounds were incubated with the enzyme (0.09 U/mL) and with DTNB (0.35 mM) for 10 min. Afterwards, the enzyme substrate acetylthiocholine (0.35 mM) was added to a final volume of 1 mL. The microplate was incubated at room temperature for 15 min. Then, the absorbance was measured at 420 nm using the microplate reader FluoStar Optima (BMG Labtech, Ortenberg, Baden-Württemberg, Germany). The enzymatic activity was calculated by subtracting the blank absorbance from the sample absorbance and dividing the result by the absorbance of the maximum activity subtracted from blank absorbance, and the result was multiplied by one hundred to give a percentage. The inhibitory activity was calculated by subtracting the enzymatic activity from one hundred. Selected compounds were assayed at 0.3, 1, 3, 10, and 30 μM concentrations to obtain inhibition curves. The results were plotted versus concentration to obtain IC50 values through sigmoidal non-lineal adjustment. All the experiments were performed at least in triplicate.
Bisavenanthramide B-6 and heliotropamide A have been identified as acetylcholinesterase inhibitors. This precedent, coupled with our interest in the potential characterization of our compounds as multitarget-directed ligands, led us to investigate them as inhibitors of this enzyme, an important anti-Alzheimer target.

[4] = system: SH-SY5Y cells; experiment: Neuroprotection against rotenone/oligomycin A in SH-SY5Y cells (MTT); assay type: cell-based; details: Homo sapiens, 24 h, 1 µM compound, rotenone 30 µM + oligomycin A 10 µM, read-out: % Neuroprotection ± SEM at 1 µM (rotenone/oligomycin A)
Experimental: To evaluate the compounds for their neuroprotective effect in an oxidative stress model, we selected the rotenone (30 μM) and oligomycin A (10 μM) (R/O) cocktail, which disturbs the flow of electrons in the mitochondrial respiratory chain. Similarly, SH-SY5Y cells were preincubated with compounds 3 at 1 μM for 24 h. Then, they were co-incubated in the presence of R/O for a further 24 h, evaluating cell viability by the MTT reduction method.
Thus, the R/O combination constitutes a good model of oxidative stress and neurodegeneration with a mitochondrial origin, and has been broadly employed to evaluate potential hit compounds for the treatment of neurodegenerative diseases. Furthermore, treatment of laboratory animals with rotenone is known to induce many features associated to Parkinson’s disease, such as selective nigrostriatal dopaminergic degeneration and the appearance of α-synuclein cytoplasmic inclusions, which are associated with oxidative damage.

[5] = system: SH-SY5Y cells; experiment: Neuroprotection against okadaic acid in SH-SY5Y cells (MTT); assay type: cell-based; details: for % neuroprotection against okadaic acid at 1 µM: Homo sapiens, SH-SY5Y, 18 h, 1 µM compound, okadaic acid 20 nM, read-out: % Neuroprotection ± SEM at 1 µM (okadaic acid)
Experimental: Neuroprotection studies against tau hyperphosphorylation exerted by okadaic acid (OA) were evaluated using the SH-SY5Y cell line as follows. […] After 18 h, cell viability was addressed by the MTT reduction method. MTT (5 mg/mL, 10 μL/well) was added and incubated for 2 h. Then, the medium was removed and the purple formazan crystals formed by viable cells were dissolved using 100 μL of DMSO. A FluoStar Optima spectrophotometer (BMG Labtech, Ortenberg, Baden-Württemberg, Germany) was used to measure the absorbance at 570 nm.
Okadaic acid is a potent inhibitor of protein phosphatase 2A (PP2A), thereby inducing tau hyperphosphorylation. For this reason, it can be employed as a model of neurodegenerative-disease-connected tau hyperphosphorylation, a well-known feature of Alzheimer’s disease, but present also in other NDDs, collectively known as tauopathies and characterized by the pathological aggregation of hyperphosphorylated tau in neurofibrillary tangles. […] Tau hyperphosphorylation is connected to oxidative stress, which activates p38 and deactivates calcineurin, a phosphatase involved in tau dephosphorylation by increasing RCAN1, its natural repressor [34, 35]. Indeed, hyperphosphorylation and oxidative stress have been proposed to generate a vicious circle that is critical to the advance of neurodegenerative tauopathies.

Chain of AChE (Electrophorus electricus) (O42275 24-633): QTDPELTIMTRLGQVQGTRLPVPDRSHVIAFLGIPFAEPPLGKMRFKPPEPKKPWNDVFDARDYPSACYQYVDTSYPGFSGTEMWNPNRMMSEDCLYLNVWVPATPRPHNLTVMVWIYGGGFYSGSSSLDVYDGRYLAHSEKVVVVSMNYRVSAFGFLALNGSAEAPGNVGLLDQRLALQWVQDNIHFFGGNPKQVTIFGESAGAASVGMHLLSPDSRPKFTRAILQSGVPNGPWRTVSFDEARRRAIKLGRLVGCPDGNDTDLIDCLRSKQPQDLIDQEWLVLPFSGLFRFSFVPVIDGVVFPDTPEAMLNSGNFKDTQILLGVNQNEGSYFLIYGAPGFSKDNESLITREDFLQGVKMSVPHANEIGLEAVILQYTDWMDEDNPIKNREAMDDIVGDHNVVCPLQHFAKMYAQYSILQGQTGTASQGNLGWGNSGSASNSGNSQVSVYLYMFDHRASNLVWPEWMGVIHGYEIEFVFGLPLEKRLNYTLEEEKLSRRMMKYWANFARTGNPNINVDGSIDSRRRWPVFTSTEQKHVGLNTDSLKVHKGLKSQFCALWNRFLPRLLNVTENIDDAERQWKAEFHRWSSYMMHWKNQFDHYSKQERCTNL

Row | SMILES | LD50 [1] | radical scavenging activity in the DPPH assay [2] | DPPH Scavenging at 0.1 mM, % [2] | IC50 [2] | inhibition at 10 µM [3] | % neuroprotection against rotenone/oligomycin A toxicity at 1 µM [4] | level of neuroprotection compared with melatonin / in words (okadaic acid) ([5]; 1 µM) | % neuroprotection against okadaic acid at 1 µM [5] | toxicity assessment [1] | neuroprotective effect against okadaic acid by concentration ([5]; 0.01, 0.1, 1, 10 and 30 µM, OA 20 nM) | DPPH Scavenging at 1 mM, % [2] | IC50 [3]
1 | COC(=O)C1=C(C)N(CCc2ccccc2)C(=O)/C1=C\c1ccc(OC)c(O)c1 [Compound 3h, Methyl (Z)-4-(3-Hydroxy-4-methoxybenzylidene)-2-methyl-5-oxo-1-phenethyl-4,5-dihydro-1H-pyrrole-3-carboxylate] | >100 µM | high radical scavenging activity | 89.0 ± 0.4% | 26.3 ± 2.1 µM | 24.2% | 46.2 ± 18.9% | excellent neuroprotection | 81.9 ± 28.5% | – | – | – | –
2 | COC(=O)C1=C(C)N(CCc2ccccc2)C(=O)/C1=C\c1ccc(O)c(O)c1 [Compound 3i, Methyl (Z)-4-(3,4-Dihydroxybenzylidene)-2-methyl-5-oxo-1-phenethyl-4,5-dihydro-1H-pyrrole-3-carboxylate] | 92.8 ± 4.6 µM | high radical scavenging activity | 90.9 ± 0.5% | 7.5 ± 0.4 µM | 27.2% | > 90% | – | 60.9 ± 23.3% | suitable toxicity profile | concentration-dependent neuroprotective effect being statistically significant at 1 and 10 µM; also recorded: neuroprotection was lost at 30 µM | – | –
3 | COC(=O)C1=C(C)N(CCc2ccccc2)C(=O)/C1=C\c1ccc(OCc2ccccc2F)c(OC)c1 [Compound 3j, Methyl (Z)-4-[4-((2-Fluorobenzyl)oxy)-3-methoxybenzylidene]-2-methyl-5-oxo-1-phenethyl-4,5-dihydro-1H-pyrrole-3-carboxylate] | >100 µM | – | 4.3 ± 2.1% | – | 16% | 51.2 ± 15.5% | – | 31.8 ± 15.2% | – | – | 31.3 ± 3.3% | –
4 | COC(=O)C1=C(C)N(CCc2ccccc2)C(=O)/C1=C\c1ccc(OCc2ccccc2Cl)c(OC)c1 [Compound 3k, Methyl (Z)-4-[4-((2-Chlorobenzyl)oxy)-3-methoxybenzylidene]-2-methyl-5-oxo-1-phenethyl-4,5-dihydro-1H-pyrrole-3-carboxylate] | >100 µM | – | 7.3 ±1.4% | – | 40.1% | 60.3 ± 20.9% | – | 57.1 ± 22.3% | – | – | 27.3 ± 1.0% | 22.4 ± 3.2 µM
5 | COC(=O)C1=C(C)N(CCc2ccccc2)C(=O)/C1=C\c1ccc(OCc2ccc(Cl)cc2)c(OC)c1 [Compound 3l, Methyl (Z)-4-[4-((4-Chlorobenzyl)oxy)-3-methoxybenzylidene]-2-methyl-5-oxo-1-phenethyl-4,5-dihydro-1H-pyrrole-3-carboxylate] | >100 µM | – | 11.3 ± 2.6% | 712.2 ± 5.4 µM | 26.2% | 79.8 ± 8.28% | – | 51.1 ± 18.4% | – | – | 63.5 ± 2.2% | –
6 | COC(=O)C1=C(C)N(CCc2ccc(OC)c(OC)c2)C(=O)/C1=C\c1ccc(OCc2ccc(Cl)cc2)c(OC)c1 [Compound 3m, Methyl (Z)-4-[4-((4-Chlorobenzyl)oxy)-3-methoxybenzylidene]-1-(3,4-dimethoxyphenethyl)-2-methyl-5-oxo-4,5-dihydro-1H-pyrrole-3-carboxylate] | >100 µM | – | 22.8 ± 0.2% | 334 ± 22.9 µM | 31.8% | 41.2 ± 18.9% | – | 40.7 ± 9.85% | – | – | 85.5 ± 2.7% | –
7 | COC(=O)C1=C(C)N(CCc2ccc(OC)c(OC)c2)C(=O)/C1=C\c1ccc(OCc2ccccc2Cl)c(OC)c1 [Compound 3n, Methyl (Z)-4-[4-((2-Chlorobenzyl)oxy)-3-methoxybenzylidene]-1-(3,4-dimethoxyphenethyl)-2-methyl-5-oxo-4,5-dihydro-1H-pyrrole-3-carboxylate] | >100 µM | – | 12.7 ± 3.5% | 552 ± 17.4 µM | 17.6% | 69.4 ± 23.9% | – | 61.4 ± 15.8% | – | – | 73.6 ± 0.7% | –
8 | COC(=O)C1=C(C)N(CCc2ccccc2)C(=O)/C1=C\c1c[nH]c2ccccc12 [Compound 3o, Methyl (Z)-4-((1H-Indol-3-yl)methylene)-2-methyl-5-oxo-1-phenethyl-4,5-dihydro-1H-pyrrole-3-carboxylate] | >100 µM | – | 12.7 ± 1.9% | – | 39.8% | > 90% | – | 46.3 ± 13.6% | – | – | 49.9 ± 3.4% | 12.5 ± 1.4 µM
